{"source": "patent US7576177B2", "about": "“Hsp peptides and analogs for modulation of immune responses via antigen presenting cells” (Andromeda Biotech Ltd., priority 2002, dated 2009)", "key": {"J774 cells": {"system": "J774 cells", "settings": "48 hours", "protocol": "Nitric oxide is a proinflammatory mediator produced by macrophages. The classic stimulus for nitric oxide production is lipopolysaccharide (LPS). Other molecules derived from pathogens such as hsp60 also induce macrophages to produce nitric oxide. Nitric oxide is usually produced by cells in conjunction with TNFα, IL-1 and IL-6.\nThe effect of p277(Val^6-Val^11) was tested on the production of nitric oxide from a macrophage cell line both the direct effect and the effect of p277(Val^6-Val^11) on the nitric oxide produced in response to hsp60.\nThe assay method is described in full in WO 01/43691. Briefly, J774 cells (2×10^5 cells/assay) were incubated for 48 hours with LPS, hsp60 or p277(Val^6-Val^11) or in inhibition assay, the cells were incubated with hsp60 at various concentrations in the presence or absence of 20 μg/ml p277(Val^6-Val^11). After 48 hours the supernatant was collected and tested for nitric oxide. The test for nitric oxide is performed by mixing an equal volume of the cell supernatant with Griess reagent and measuring the resultant color at 550 nm."}, "[1]": {"system": "peripheral blood mononuclear cells cultured with GM-CSF and IL4 (dendritic cells)", "experiment": "Peripheral blood derived dendritic cells: secreted cytokines (IP-10, IL-8) and cell surface antigens (CD83, CD86)", "type": "cell-based, human", "settings": "for IL-8 / IP-10: overnight", "protocol": "The effect of the compositions of the present invention on peripheral blood derived dendritic cells, was tested according to a protocol described by Re, F. and Strominger, J. L. 2001. Toll-like receptor 2 (Tlr2) and Tlr4 differentially activate human dendritic cells. (J Biol Chem 276: 37692-9). According to this method immature dendritic cells derived from human peripheral blood are used. The outcome after incubating the cells with tested molecules is different if the stimulation is through the Toll 4 receptor or the Toll 2 receptor. According to the authors, Toll 2 signaling by stimulation with zymosan is associated with a Th2 kind of response (exemplified by IL-8) and Toll 4 signaling, such as obtained by LPS stimulation (exemplified by IP-10), with a Th1 type of response. The compositions of the present invention were tested using a similar assay system in order to check which stimulation type they induce. […] The increase in CD86 expression after exposure of APCs to Hsps or Hsp derived peptides is important since CD86 (B7.2) is an essential component of the immunological synapse formed between T cells and APC. This synapse consists of CD80 and CD86 on the side of the APC and CD28 and CD40 on the side of the T cell. T cell recognition of peptide on APC without the concurrent expression of CD86 gives rise to anergy instead of a T cell response. Therefore in order to produce a response all components must be present.\nThe assay was based on the protocol described by Re, F. and Strominger, J. L. 2001. Toll-like receptor 2 (Tlr2) and Tlr4 differentially activate human dendritic cells. (J. Biol Chem 276: 37692-9).\nPeripheral blood mononuclear cells were prepared from leucocytes from blood lots obtained from the blood bank. The cells were plated at 10^8 cells/10 ml/Petri dish in RPMI medium including 10% FCS and allowed to adhere at 37° C. for 2 hours. At the end of this time, the non-adherent cells were washed off the plates with PBS and the adherent cells resuspended in fresh medium as before. The cells were then cultured for at least 8 days with the addition of GM-CSF and IL4 with the medium changed every 4 days. After this time, the cells were harvested and cultured overnight with LPS, zymosan or p277(Val^6-Va^11). The next day, the supernatant was collected for assay of the secreted cytokines (IP-10 and IL-8) and the cells were harvested for investigation of the cell surface antigens (CD83, CD86). CD83 is an antigen characteristic of dendritic cells. […] The second marker, CD86 (B7.2) is characteristic of mature dendritic cells. The marker CD86 is an essential component of the immunological synapse formed between T cells and APC. This synapse consists of CD80 and CD86 on the side of the APC and CD28 and CD40 on the side of the T cell. This is of course in addition to the specific recognition between the T cell receptor and peptide held in the MHC of the APC. T cell recognition of peptide on APC without the concurrent expression of CD86 gives rise to anergy instead of a T cell response."}, "[2]": {"system": "peripheral blood monocytes", "experiment": "Peripheral blood monocytes: IP-10 after direct stimulation or preincubation then LPS", "type": "cell-based, human", "protocol": "Peripheral blood mononuclear cells were prepared from leucocytes of blood lots obtained from the blood bank. The cells were plated at a concentration of 4×10^6 cell/ml/well in 24 well tissue culture dishes in medium containing 10% fetal calf serum. The cells were allowed to adhere for 2 hours at 37° C. After this time, non-adherent cells were washed away and the adherent cells incubated in fresh medium containing 10% human AB serum for 6-8 days, changing the medium after 4 days. These culture conditions were reported to give rise to monocytes.\nFor stimulation the medium was replaced with medium without serum. For preincubation, the cells were exposed overnight to the tested compounds at various concentrations and then LPS was added. The supernatant was collected after a further overnight incubation and tested for various cytokines by ELISA assays."}, "mouse monocyte line J774": {"system": "mouse monocyte line J774", "experiment": "Secretion of oxygen free radicals (oxidative burst) from mouse monocyte line", "type": "cell-based", "settings": "J774, FIG. 5"}}, "data": [{"sequence": "VLGGGVALLRVIPALDSLTPANED [p277(Val^6-Val^11)]", "values": [{"measurement": "direct stimulation of nitric oxide production", "setting": "J774 cells", "result": "Under no conditions did the peptide stimulate nitric oxide production"}, {"measurement": "inhibition of hsp60 induced nitric oxide", "setting": "J774 cells; hsp60 at various concentrations with 20 μg/ml peptide", "result": "Neither did it inhibit the hsp60 induced nitric oxide produced"}, {"measurement": "IL-8 secretion (in words)", "setting": "[1]; overnight stimulation", "result": "resulted in IL-8 secretion"}, {"measurement": "IP-10 secretion (in words)", "setting": "[1]; overnight stimulation", "result": "no IP-10 secretion"}, {"measurement": "maturation: percentage of cells stained with anti-CD86", "setting": "[1]; overnight stimulation, FIG. 3", "result": "increase of maturation"}, {"measurement": "IL-8", "setting": "[1]; stimulus 0.5 ng/ml", "result": 2368, "unit": "pg/mL"}, {"measurement": "IP-10", "setting": "[1]; stimulus 0.5 ng/ml", "result": -1, "unit": "pg/mL"}, {"measurement": "IP-10", "setting": "[1]; stimulus 5 ng/ml", "result": 2, "unit": "pg/mL"}, {"measurement": "IL-8", "setting": "[1]; stimulus 50 ng/ml", "result": 2574, "unit": "pg/mL"}, {"measurement": "IP-10", "setting": "[1]; stimulus 50 ng/ml", "result": 39, "unit": "pg/mL"}, {"measurement": "IP-10", "setting": "[1]; stimulus 0.5 μg/ml", "result": 21, "unit": "pg/mL"}, {"measurement": "amount of IP-10 produced in response to stimulus with LPS after preincubation", "setting": "[2]; overnight preincubation, then LPS, FIG. 4", "result": "did increase the amount of IP-10"}, {"measurement": "IP-10 after direct stimulation", "setting": "[2]; peripheral blood monocytes, no preincubation, FIG. 4", "result": "did not give rise directly to II-10"}, {"measurement": "IP-10 in response to hsp60 after preincubation", "setting": "[2]; preincubation with p277(Val^6-Val^11), then hsp60", "result": "did not give rise to IP-10"}, {"measurement": "inhibition of the oxidative burst (secretion of oxygen free radicals)", "setting": "mouse monocyte line J774", "result": "effective"}, {"measurement": "direct stimulation of TNFα", "setting": "cell lines", "result": "ineffective"}, {"measurement": "inhibition of TNFα secreted as a result of stimulation by LPS or hsp60", "setting": "cell lines", "result": "ineffective"}]}]}
